What is called IC50 is the concentration at which inhibition is half-maximal.

The target in the experiment is T1, interaction between biotinylated human S100A9 and human RAGE-Fc (Homo sapiens, UniProt P06702).
T1 construct: made in house; host or cells: E. coli BL21(DE3)/pET1120 (pLR757)
T1 sequence (P06702 1-114): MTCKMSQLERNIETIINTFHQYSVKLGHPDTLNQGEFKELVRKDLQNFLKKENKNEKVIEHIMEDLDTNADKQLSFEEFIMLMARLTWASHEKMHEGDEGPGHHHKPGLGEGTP
Briefly: AlphaScreen inhibition assay, Biot-hS100A9:hRAGE-Fc (S100A9-RAGE inhibition assay). It is filed as binding. To be noted: biot-hS100A9 and rhRAGE-Fc, Ca2+ and Zn2+ in buffer. The source says: FIG. 1 is a schematic representation of an assay of the inhibition of the interaction between biotinylated human S100A9 and human RAGE-Fc using a small molecule S100A9 binder.
Inhibition Assay, Biot-hS100A9:hRAGE-Fc
The AlphaScreen (Amplified Luminescent Proximity Homogeneous Assay) contains two types of beads, Alpha Donor beads and Acceptor beads (PerkinElmer). Upon laser excitation at 680 nm a photosensitizer in the Donor bead converts ambient oxygen to a more excited singlet state. The singlet oxygen molecule diffuses (maximum 200 nm) to react with a thioxene derivative in the Acceptor bead and generates a chemiluminescence reaction. Fluorophores in the Acceptor bead subsequently emit light at 520-620 nm which can be detected in the EnVision® Multilabel plate Reader (PerkinElmer). The beads are light sensitive and all work with the beads is performed under subdued light conditions or using green filters on light sources (Roscolux Chroma Green #389, Rosco).
In the AlphaScreen Inhibition Assay described here, protein A (Staphylococcus aureus) conjugated Acceptor beads are used together with streptavidin coated Donor beads (Perkin Elmer 6760617M). The Acceptor beads are pre-incubated with Fc-tagged recombinant human RAGE (rhRAGE-Fc) allowing binding of the rhRAGE-Fc to protein A on the beads. Biotinylated human S100A9 (biot-hS100A9) is pre-incubated with the low molecular test compounds. The pre-mixes are then added to the wells of a micro-plate and incubated allowing interaction between biot-hS100A9 and rhRAGE-Fc. Subsequent addition of streptavidin coated Donor beads causes binding of the streptavidin to the biotinylated hS100A9. After an additional incubation the signal is measured.
Without inhibitory compounds, the interaction of biot-hS100A9 to rhRAGE-Fc will bring the Acceptor and Donor beads in close proximity thus generating a high signal. With an inhibitor present the complex will not form resulting in a decreased signal.
The AlphaScreen assay method is used for screening of the inhibitory effect of different compound samples at fixed concentrations or for IC50 determination by varying the compound concentrations. Samples of test compounds and references are prepared from solutions in DMSO. Relevant reference inhibitors and DMSO are used as controls for defined inhibition and non-inhibition, respectively in the assay. The percent inhibition in assay for test compounds and references are calculated by comparing their obtained assay signals with the signal values for the control with only DMSO (no compound).
Assay concentration of biotinylated hS100A9 and rhRAGE-Fc are batch dependent, and are determined and defined by separate cross-titration experiments using this AlphaScreen inhibition method to verify the optimal setup regarding signal strength and achievement of a defined inhibition with relevant reference compounds. The Final assay concentrations of Acceptor and Donor beads are 20 μg/mL.
Assay buffer is prepared by adding CaCl2 and ZnCl2 to HBS-P and is used freshly prepared in the experiment.
Biotin-hS100A9 solution for the experiment is prepared by dilution of appropriate amount of stock solution biot-hS100A9 in assay buffer (with CaCl2 and ZnCl2) and incubation in room temperature for 30 minutes.
rhRAGE-Fc solution for the experiment is prepared by dilution appropriate amount of rhRAGE-Fc stock in assay buffer.
Protein A Acceptor beads are diluted in assay buffer and are added to an equal volume of the prepared diluted rhRAGE-Fc solution. The beads are light sensitive. The vial is covered with aluminum foil and incubated at room temperature in the dark until biot-hS100A9+compound incubation is finished (see below).
Streptavidin-coated Donor beads are diluted in assay buffer. The beads are very light sensitive. The vial is covered with aluminum foil and incubated at room temperature in the dark until use (see below).
Samples of test compounds, appropriate references and DMSO control are diluted in assay buffer. […]
Background: In Alpha technology, singlet oxygen from a donor bead excites a nearby acceptor bead.
Take `Cc1cc2nc3n(c2cc1C)C(NC(=O)[C@H](C)OCC1CCCC1)(C(F)(F)F)C(=O)N3` (single isomer, unassigned) [Example 215a]: the IC50 was 1.44 µM.

As to `CN(C)CCNc1cccc(C(=O)NC2(C(F)(F)F)C(=O)Nc3nc4cc(Cl)c(Cl)cc4n32)n1` (centres unmarked) [Example 93, N-[10,11-dichloro-4-oxo-3-(trifluoromethyl)-2,5,7-triazatricyclo[6.4.0.0^2,6]dodeca-1(8),6,9,11-tetraen-3-yl]-6-{[2-(dimethylamino)ethyl]amino}pyridine-2-carboxamide], the IC50 was 0.6 µM.

Consider `O=C(NC1(C(F)(F)F)C(=O)Nc2nc3cc(Cl)c(Cl)cc3n21)c1cc(Cl)cc(Cl)c1` (centres unmarked) [Example 57, 3,5-dichloro-N-[10,11-dichloro-4-oxo-3-(trifluoromethyl)-2,5,7-triazatricyclo-[6.4.0.0^2,6]dodeca-1(12),6,8,10-tetraen-3-yl]benzamide], for which the 50% inhibitory concentration (IC50) was determined as 2.8 µM.

In the case of `O=C(CCC1CCCC1)NC1(C(F)(F)F)C(=O)Nc2nc3cc(Cl)c(Cl)cc3n21` (centres unmarked) [Example 39, 3-cyclopentyl-N-[10,11-dichloro-4-oxo-3-(trifluoromethyl)-2,5,7-triazatricyclo[6.4.0.0^2,6]-dodeca-1(12),6,8,10-tetraen-3-yl]propanamide], the half-maximal inhibitory concentration (IC50) is 0.5 µM.

As to `Cc1cc2nc3n(c2cc1C)C(NC(=O)CCc1c(Cl)cccc1Cl)(C(F)(F)F)C(=O)N3` (centres unmarked) [Example 29, 3-(2,6-dichlorophenyl)-N-[10,11-dimethyl-4-oxo-3-(trifluoromethyl)-2,5,7-triaza-tricyclo[6.4.0.0^2,6]dodeca-1(8),6,9,11-tetraen-3-yl]propanamide], the IC50 worked out at 5.4 µM.

As for `O=C(CCC1CCCC1)NC1(C(F)(F)F)C(=O)Nc2nc3c(Cl)cccc3n21` (centres unmarked) [Example 85, N-[9-chloro-4-oxo-3-(trifluoromethyl)-2,5,7-triazatricyclo[6.4.0.0^2,6]dodeca-1(12),6,8,10-tetraen-3-yl]-3-cyclopentylpropanamide], the IC50 was determined as 2.6 µM.

As for `CC(C)CNc1nc(C(=O)NC2(C(F)(F)F)C(=O)Nc3nc4cc(Cl)c(Cl)cc4n32)cs1` (centres unmarked) [Example 237, N-[10,11-dichloro-4-oxo-3-(trifluoromethyl)-2,5,7-triazatricyclo[6.4.0.0^2,6]dodeca-1(12),6,8,10-tetraen-3-yl]-2-[(2-methylpropyl)amino]-1,3-thiazole-4-carboxamide], the IC50 was found to be 1.81 µM.

For the compound `Cc1cc2nc3n(c2cc1C)C(NC(=O)CCc1ccccc1)(C(F)(F)F)C(=O)N3` (centres unmarked) [Example 15, N-[10,11-dimethyl-4-oxo-3-(trifluoromethyl)-2,5,7-triazatricyclo[6.4.0.0^2,6]dodeca-1(8),6,9,11-tetraen-3-yl]-3-phenylpropanamide], the IC50 turned out to be 1.4 µM.

Turning to `CC(=O)c1cccc2c1nc1n2C(NC(=O)CCC2CCCC2)(C(F)(F)F)C(=O)N1` (centres unmarked) [Example 122, N-[9-acetyl-4-oxo-3-(trifluoromethyl)-2,5,7-triazatricyclo[6.4.0.0^2,6]dodeca-1(12),6,8,10-tetraen-3-yl]-3-cyclopentylpropanamide], the IC50 was determined as 1.5 µM.

`O=C(CCC1CCCC1)NC1(C(F)(F)F)C(=O)Nc2nc3c(Cl)cc(Cl)cc3n21` (centres unmarked) [Example 84, 3-cyclopentyl-N-[9,11-dichloro-4-oxo-3-(trifluoromethyl)-2,5,7-triazatricyclo[6.4.0.0^2,6]-dodeca-1(12),6,8,10-tetraen-3-yl]propanamide]: the IC50 came out at 1.4 µM.

`O=C(NC1(C(F)(F)F)C(=O)Nc2nc3cc(Cl)c(Cl)cc3n21)[C@@H]1CCN(S(=O)(=O)C2CCCC2)C1` (stereo partly drawn) [Example 51, (3R)-1-(cyclopentanesulfonyl)-N-[10,11-dichloro-4-oxo-3-(trifluoromethyl)-2,5,7-triaza-tricyclo[6.4.0.0^2,6]dodeca-1(12),6,8,10-tetraen-3-yl]pyrrolidine-3-carboxamide]: the IC50 is 1.2 µM.
